Data on twelve compounds can be found in ChEMBL document CHEMBL1201862, “PubChem BioAssay data set” (2004).

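Cultured in 96-well plates, cells were exposed to test compound for 48 hours across five concentrations. GI50: concentration for 50% inhibition of growth.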 Activity calls are given as the source filed them. Rule as the data show it: active = GI50 up to about 1.1 µM and inactive = higher.

Among the test systems are 786-0; A498; BT-549; CCRF-CEM; HCT-116; Hs-578T; M14; MCF7; MDA-MB-231; NCI-H460; OVCAR-4; OVCAR-8; RPMI-8226; SK-MEL-2; SR; TK-10; U-251; MDA-N; IGROV-1.
Common to all, as to test: inhibition of tumour cell growth, NCI panel, 48 h

Regarding `O=C(c1ccc2ccccc2c1)N(Cc1cccnc1)C(=S)N(Cc1cccnc1)C(=O)c1ccc2ccccc2c1`, the GI50 in the test on 786-0 was 25.2 µM (inactive); in the test on A498, 32.9 µM (inactive); in the test with BT-549, 17 µM (inactive); in the test with CCRF-CEM, 60.7 µM (inactive); with HCT-116, 35.7 µM (inactive); in the test on Hs-578T, 49.9 µM (inactive). Besides, the GI50 was 20.8 µM (inactive) in the test on M14; 32.7 µM (inactive) in the test on MCF7; 23.2 µM (inactive) with MDA-MB-231; 30.6 µM (inactive) in the test on NCI-H460; 20.7 µM (inactive) in the test with OVCAR-4; 25.7 µM (inactive) with OVCAR-8. For the same compound, the GI50 in the test with RPMI-8226 is 32.9 µM (inactive); with SK-MEL-2, 25.6 µM (inactive); in the test on SR it was 45.2 µM (inactive); with TK-10 it was 31.1 µM (inactive); in the test on U-251, 19 µM (inactive).

As for `Nc1nc(N)c2c(n1)CCC(S(=O)(=O)c1ccc3ccccc3c1)C2` (stereo unspecified), the GI50 is 23.1 µM (inactive) in the test on 786-0; 24.9 µM (inactive) in the test with A498; 6.65 µM (inactive) with BT-549; 5.2 µM (inactive) with CCRF-CEM; 11.6 µM (inactive) with HCT-116; 12.6 µM (inactive) in the test on M14. The GI50 is 10.1 µM (inactive) in the test with MCF7; 42.4 µM (inactive) with MDA-MB-231; 0.766 µM (active) in the test on MDA-N; 0.891 µM (active) with NCI-H460; 5.26 µM (inactive) in the test on OVCAR-8; 12.5 µM (inactive) in the test on RPMI-8226. Further, the GI50 was 4.08 µM (inactive) in the test on SR, 4.57 µM (inactive) with TK-10 and 2.45 µM (inactive) in the test with U-251.

Regarding `C=CC[C@H]1[C@@H](O[Si](C)(C)C(C)(C)C)[C@H](n2ccc(=O)[nH]c2=O)O[C@@H]1CO[Si](C)(C)C(C)(C)C`, the GI50 with 786-0 was 1.56 µM (inactive); with A498 it was 3.01 µM (inactive); in the test with BT-549, 3.05 µM (inactive); in the test with CCRF-CEM it was 2.52 µM (inactive); in the test with HCT-116 it was 1.47 µM (inactive); in the test with Hs-578T it was 3.01 µM (inactive). The GI50 was 2.32 µM (inactive) in the test on IGROV-1; 1.57 µM (inactive) in the test with M14; 1.77 µM (inactive) with MCF7; 1.96 µM (inactive) in the test on MDA-MB-231; 1.9 µM (inactive) with NCI-H460; 1.82 µM (inactive) in the test with OVCAR-4. Further, the GI50 in the test on OVCAR-8 is 1.87 µM (inactive); in the test on RPMI-8226, 2.11 µM (inactive); with SK-MEL-2 it was 2.62 µM (inactive); with SR it was 2.44 µM (inactive); in the test with TK-10, 2.97 µM (inactive); in the test on U-251, 2.09 µM (inactive).

`CN(C)CCn1c(CO)nc2c1c(=O)n(C)c(=O)n2C`: the GI50 in the test on 786-0, in the test with A498, in the test on BT-549, in the test on CCRF-CEM, in the test with HCT-116 and with Hs-578T was > 100 µM (inactive) throughout. For the same compound, the GI50 in the test on IGROV-1, in the test with M14, in the test with MCF7, with MDA-MB-231, in the test on NCI-H460 and in the test with OVCAR-4 was > 100 µM (inactive) in each case. The GI50 in the test on OVCAR-8, with RPMI-8226, in the test on SK-MEL-2, in the test with SR, in the test on TK-10 and with U-251 was > 100 µM (inactive) in each case.

As to `C[C@]12CC[C@@H]3c4cc(Br)c(O)c(Br)c4CC[C@H]3[C@@H]1CCC2=O`, the GI50 with 786-0 was 19.7 µM (inactive); with A498 it was 40.9 µM (inactive); with BT-549 it was 23.8 µM (inactive); in the test with CCRF-CEM it was 24.7 µM (inactive); in the test with HCT-116, 27.5 µM (inactive); with Hs-578T, 21.9 µM (inactive). The GI50 in the test with IGROV-1 was 38.1 µM (inactive); in the test on M14, 39.2 µM (inactive); with MCF7, 21.4 µM (inactive); in the test on MDA-MB-231, 32.2 µM (inactive); with MDA-N it was 33.1 µM (inactive); with NCI-H460, 21.4 µM (inactive). The GI50 is 13.3 µM (inactive) in the test with OVCAR-4; 19 µM (inactive) in the test with OVCAR-8; 15 µM (inactive) in the test with SK-MEL-2; 17.6 µM (inactive) in the test on TK-10; 16.6 µM (inactive) in the test with U-251.

For the compound `C=C[C@@]1(C)CC(=O)[C@]2(O)[C@@]3(C)[C@@H](OC(C)=O)CCC(C)(C)[C@@H]3[C@H](O)[C@H](OC(C)=O)[C@@]2(C)O1`, the GI50 in the test on 786-0 is 83.6 µM (inactive); in the test on A498, > 100 µM (inactive); with BT-549, > 100 µM (inactive); in the test on HCT-116 it was > 100 µM (inactive); in the test with IGROV-1, > 100 µM (inactive); in the test on M14, > 100 µM (inactive). Also, the GI50 with MCF7, with MDA-MB-231, in the test on MDA-N, in the test on NCI-H460, in the test with OVCAR-4 and with OVCAR-8 was > 100 µM (inactive) throughout. Further, the GI50 in the test with SK-MEL-2, with SR and in the test with U-251 was > 100 µM (inactive) throughout.

Regarding `CCC1(CC)C(=O)CC[C@@]2(C)C1=CC[C@H]1[C@@H]3CC[C@H](O)[C@@]3(C)CC[C@@H]12`, the GI50 is 15.5 µM (inactive) with 786-0; 23.8 µM (inactive) with A498; > 100 µM (inactive) in the test with BT-549; 19.6 µM (inactive) with CCRF-CEM; 22.2 µM (inactive) with HCT-116; 24.4 µM (inactive) with Hs-578T. The GI50 is 37.8 µM (inactive) in the test with IGROV-1; 43.4 µM (inactive) in the test on M14; 47.9 µM (inactive) in the test on MDA-MB-231; 31.3 µM (inactive) in the test on MDA-N; 16.3 µM (inactive) with NCI-H460; 34.8 µM (inactive) in the test with OVCAR-4. In addition, the GI50 with OVCAR-8 is 23.5 µM (inactive); with RPMI-8226, 12.1 µM (inactive); with SK-MEL-2, 79.3 µM (inactive); in the test on SR, 15.4 µM (inactive); in the test on TK-10, 19.9 µM (inactive); in the test with U-251, 18.1 µM (inactive).

Regarding `O=C1c2ccccc2-c2ccc(/N=N/c3c(O)ccc4ccccc34)cc21`, the GI50 in the test with 786-0 was > 100 µM (inactive); with A498, > 100 µM (inactive); in the test on BT-549, > 100 µM (inactive); with CCRF-CEM, 15.4 µM (inactive); in the test on HCT-116, > 100 µM (inactive); in the test on Hs-578T it was > 100 µM (inactive). Also, the GI50 in the test on IGROV-1, in the test on M14, with MDA-MB-231, with MDA-N, with OVCAR-4 and in the test with OVCAR-8 was > 100 µM (inactive) each time. Also, the GI50 in the test on RPMI-8226, in the test with SK-MEL-2, in the test on TK-10 and in the test with U-251 was > 100 µM (inactive) in each case.

As to `O=C(c1ccc2ccccc2c1)C1(I)S(=O)(=O)OCCOS1(=O)=O`, the GI50 in the test with 786-0, in the test with BT-549, with CCRF-CEM, in the test on HCT-116, in the test on M14 and in the test on MCF7 was > 100 µM (inactive) each time. Further, the GI50 in the test with MDA-MB-231, in the test on MDA-N, with NCI-H460, with OVCAR-4, in the test on OVCAR-8 and in the test with RPMI-8226 was > 100 µM (inactive) in each case. For the same compound, the GI50 in the test with SK-MEL-2, in the test with SR, in the test with TK-10 and in the test with U-251 was > 100 µM (inactive) in each case.

Take `O=C(NNC(=S)Nc1ccc(Br)cc1)c1cc(-c2ccccc2)nc2ccccc12`: the GI50 was 19 µM (inactive) in the test on 786-0; 13.8 µM (inactive) in the test with A498; 24.5 µM (inactive) in the test with BT-549; 22.1 µM (inactive) in the test on CCRF-CEM; 16.7 µM (inactive) in the test with HCT-116; 30.2 µM (inactive) in the test on Hs-578T. Also, the GI50 is 37.8 µM (inactive) with IGROV-1; 17 µM (inactive) with M14; 18.4 µM (inactive) in the test on MCF7; 18.6 µM (inactive) with MDA-MB-231; 20.8 µM (inactive) in the test with NCI-H460; 19.8 µM (inactive) in the test on OVCAR-4. Further, the GI50 with OVCAR-8 was 23.1 µM (inactive); in the test on RPMI-8226, 14.3 µM (inactive); in the test with SK-MEL-2, 20 µM (inactive); in the test on SR, 20.4 µM (inactive); in the test on TK-10, 14.9 µM (inactive); with U-251 it was 16.2 µM (inactive).

Turning to `OC1CSCCCSCCSCCCSC1`, the GI50 in the test on 786-0, in the test with A498, in the test on BT-549, in the test with HCT-116, with Hs-578T and in the test on IGROV-1 was > 100 µM (inactive) throughout. Further, the GI50 with M14, in the test on MCF7, in the test on MDA-MB-231, in the test with MDA-N, in the test with NCI-H460 and in the test on OVCAR-4 was > 100 µM (inactive) each time. For the same compound, the GI50 in the test with OVCAR-8 was > 100 µM (inactive); in the test with RPMI-8226, 37.6 µM (inactive); with SK-MEL-2, > 100 µM (inactive); in the test on TK-10, > 100 µM (inactive); in the test on U-251, > 100 µM (inactive).

In the case of `Cc1c(C2CCSc3ccccc3N2)sc2ccccc12` (stereo unspecified), the GI50 in the test with 786-0 is > 100 µM (inactive); with BT-549, > 100 µM (inactive); in the test with HCT-116, 62.1 µM (inactive); in the test on Hs-578T it was > 100 µM (inactive); in the test with IGROV-1, > 100 µM (inactive); in the test on M14 it was > 100 µM (inactive). In addition, the GI50 with MCF7 was 62.2 µM (inactive); with MDA-MB-231, > 100 µM (inactive); with MDA-N, 39.8 µM (inactive); with NCI-H460 it was 90.2 µM (inactive); with OVCAR-4, 62.7 µM (inactive); in the test with OVCAR-8 it was > 100 µM (inactive). In addition, the GI50 with RPMI-8226, in the test with SK-MEL-2, in the test on TK-10 and in the test with U-251 was > 100 µM (inactive) each time.
